Experimental data taken from PMC4791841, “Nanomolar Inhibitors of Trypanosoma brucei RNA Triphosphatase” (mBio, 2016).
Like-named read-outs stand apart in the source and are kept apart here.

Experiments:
MimiCE = molecular target: T1, MimiCE (Acanthamoeba polyphaga mimivirus, UniProt Q5UQX1); assay: biochemical; type: biochemical; conditions: for IC50/IC50 TbCet1, MimiCE: ratio in parentheses;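 as to all read-outs here: mimivirus capping enzyme triphosphatase ATPase reaction, radiolabeled ATP hydrolysis to Pi quantified by TLC after 10 min, normalized to no-inhibitor control with 5% DMSO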
T1 construct: the N-terminal RTPase domain (amino acids [aa] 1 to 237) of mimivirus capping enzyme (MimiCE); HisSmt3 (N, cleaved yes); made in house; host or cells: Escherichia coli
T1 sequence (Q5UQX1 1-237): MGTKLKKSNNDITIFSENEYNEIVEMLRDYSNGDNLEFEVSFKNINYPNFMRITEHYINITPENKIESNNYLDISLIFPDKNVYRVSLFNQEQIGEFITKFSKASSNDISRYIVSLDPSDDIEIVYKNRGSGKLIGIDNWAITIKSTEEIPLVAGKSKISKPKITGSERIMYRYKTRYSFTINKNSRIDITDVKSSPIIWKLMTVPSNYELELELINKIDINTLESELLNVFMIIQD

TbCet1 [1] = molecular target: T2, TbCet1 (Trypanosoma brucei brucei, UniProt Q582T2); assay: colorimetric malachite green HTS assay of Pi release from ATP by TbCet1
T2 sequence (Q582T2 1-253): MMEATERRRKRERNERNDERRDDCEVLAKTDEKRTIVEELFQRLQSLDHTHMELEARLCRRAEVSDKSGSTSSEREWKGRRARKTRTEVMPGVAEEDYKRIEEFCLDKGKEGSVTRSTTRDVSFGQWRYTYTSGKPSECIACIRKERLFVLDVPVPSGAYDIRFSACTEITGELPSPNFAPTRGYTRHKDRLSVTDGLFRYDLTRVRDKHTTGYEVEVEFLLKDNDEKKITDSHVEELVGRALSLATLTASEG

CthTTM [2] = molecular target: T3, CthTTM (Acetivibrio thermocellus, UniProt A3DIJ8); assay: TLC assay for 32Pi release from [γ-32P]ATP, CthTTM; type: biochemical, Clostridium thermocellum; conditions: for IC50/IC50 TbCet1, CthTTM: ratio in parentheses
T3 sequence (A3DIJ8 1-156): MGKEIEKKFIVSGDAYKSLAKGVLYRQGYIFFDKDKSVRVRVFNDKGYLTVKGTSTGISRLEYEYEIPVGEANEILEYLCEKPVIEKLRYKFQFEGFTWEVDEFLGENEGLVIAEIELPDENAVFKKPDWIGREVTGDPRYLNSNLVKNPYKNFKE

TbCet1 [3] = molecular target: T2, TbCet1; assay: TLC assay for 32Pi release from [γ-32P]ATP, TbCet1; conditions: for IC50: 2.2 nM TbCet1, 0.2 mM ATP, 2 mM Mn2+, 10 min 37°C
procyclic T. brucei = assay: cell proliferation of cultured procyclic T. brucei; type: cell-based, Trypanosoma brucei; conditions: 10 µM; preliminary studies, data not shown
SceCet1 = molecular target: T4, SceCet1 (Saccharomyces cerevisiae, UniProt O13297); assay: TLC assay for 32Pi release from [γ-32P]ATP, SceCet1; type: biochemical; conditions: for IC50/IC50 TbCet1, SceCet1: ratio in parentheses
T4 construct: C-terminal catalytic domain (aa 241 to 539) of S. cerevisiae RTPase (SceCet1); made in house; host or cells: Escherichia coli
T4 sequence (O13297 241-539): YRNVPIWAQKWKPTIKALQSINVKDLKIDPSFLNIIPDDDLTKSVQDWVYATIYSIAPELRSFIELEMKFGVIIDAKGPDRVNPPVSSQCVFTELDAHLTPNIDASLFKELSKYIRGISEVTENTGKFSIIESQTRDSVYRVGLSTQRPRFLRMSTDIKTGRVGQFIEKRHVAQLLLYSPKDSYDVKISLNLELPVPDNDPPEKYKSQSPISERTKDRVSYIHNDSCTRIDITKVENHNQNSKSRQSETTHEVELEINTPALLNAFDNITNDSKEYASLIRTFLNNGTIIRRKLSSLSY

Lef4 = molecular target: T5, Lef4 (Autographa californica nuclear polyhedrosis virus, UniProt P41477); assay: TLC assay for 32Pi release from [γ-32P]ATP, Lef4; type: biochemical, Autographa californica nucleopolyhedrovirus (AcNPV); conditions: for IC50/IC50 TbCet1, Lef4: ratio in parentheses;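 as to all read-outs here: Lef4 RNA triphosphatase cleaving radiolabelled ATP over 10 min at 37°C, hydrolysis set relative to inhibitor-free 5% DMSO controls, comparisons made against TbCet1 tested the same way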
T5 construct: the N-terminal RTPase domain (aa 1 to 236) of AcNPV Lef4 capping enzyme; HisSmt3 (N, cleaved yes); made in house; host or cells: Escherichia coli
T5 sequence (P41477 1-236): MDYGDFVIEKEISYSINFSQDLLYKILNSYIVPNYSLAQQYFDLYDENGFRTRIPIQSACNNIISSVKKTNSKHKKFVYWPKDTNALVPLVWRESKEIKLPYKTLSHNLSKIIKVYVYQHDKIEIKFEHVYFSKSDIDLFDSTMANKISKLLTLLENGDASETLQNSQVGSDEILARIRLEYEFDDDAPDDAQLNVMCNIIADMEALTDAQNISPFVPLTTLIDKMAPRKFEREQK

[4] = system: Trypanosoma cruzi amastigotes; design: method as in PMID 25880257; conditions: cited from earlier work
Leishmania amazonensis = system: Leishmania amazonensis; design: method as in PMID 25880257; conditions: cited from earlier work
CthTTM [5] = assay: TLC assay for 32Pi release from [γ-32P]ATP, CthTTM; type: biochemical, Clostridium thermocellum
TbCet1 [6] = molecular target: T2, TbCet1; design: Recombinant full-length T. brucei RTPase TbCet1; HisSmt3 (N, cleaved yes); made in house; host or cells: Escherichia coli; method as in PMID 14525979; conditions: ATP substrate Km 25 µM; read-out: Ki, competitive inhibitor of TbCet1; cited from earlier work
[7] = 7 nM MimiCE, 37°C, read-out: IC50 MimiCE
[8] = 500 nM CthTTM, 37°C, read-out: IC50 CthTTM
[9] = 50 nM Lef4, 37°C, read-out: IC50 Lef4
[10] = read-out: IC50 by HTS assay, colorimetric phosphate release from ATP, Mn2+
[11] = read-out: IC50 TbCet1 by 32P assay

Compound	IC50 (MimiCE; [7])	IC50/IC50 TbCet1, MimiCE (MimiCE)	IC50 (TbCet1 [1])	IC50/IC50 TbCet1, CthTTM (CthTTM [2])	IC50 (TbCet1 [3]; IC50 TbCet1 by 32P assay)	IC50 (SceCet1)	IC50/IC50 TbCet1, SceCet1 (SceCet1)	IC50 (Lef4; [9])	IC50/IC50 TbCet1, Lef4 (Lef4)	IC50 (Lef4)	other results
O=C(/C=C/c1ccc(O)c(O)c1)O[C@@H]1C[C@](OC(=O)/C=C/c2ccc(O)c(O)c2)(C(=O)O)C[C@@H](OC(=O)/C=C/c2ccc(O)c(O)c2)[C@H]1OC(=O)/C=C/c1ccc(O)c(O)c1 [Compound 1A, 1,3,4,5-O-tetracaffeoylquinic acid]	1.4 µM	108	0.02 µM	846	0.013 µM	7.1 µM	546	5.7 µM	438		fold lower potency against MimiCE than against TbCet1 (MimiCE): 110 fold; fold lower potency against CthTTM than against TbCet1 (CthTTM [2]): 850 fold; IC50 (CthTTM [2]; [8]): 11 µM; effect on cell proliferation (procyclic T. brucei): no effect; fold lower potency against SceCet1 than against TbCet1 (SceCet1): 550 fold; fold lower potency against Lef4 than against TbCet1 (Lef4): 440 fold
O=C(/C=C/c1ccc(O)c(O)c1)O[C@@H]1CC(O)(C(=O)O)C[C@@H](OC(=O)/C=C/c2ccc(O)c(O)c2)C1O (stereo partly drawn) [Compound 1B, 3,5-O-dicaffeoylquinic acid]											activity against Trypanosoma cruzi amastigotes [4]: inactive; IC50 (TbCet1 [1]; [10]): 0.04 µM; activity against Leishmania amazonensis (Leishmania amazonensis): inactive; IC50 (TbCet1 [3]; [11]): 0.07 µM
O=C(OC[C@H]1O[C@@H](OC(=O)c2cc(O)c(O)c(O)c2)[C@H](OC(=O)c2cc(O)c(O)c(O)c2)[C@@H](OC(=O)c2cc(O)c(O)c(O)c2)[C@@H]1OC(=O)c1cc(O)c(O)c(O)c1)c1cc(O)c(O)c(O)c1 [Compound 2A, pentagalloylglucose]			0.04 µM		0.046 µM					59 µM	IC50 (MimiCE): 5.1 µM; IC50 (SceCet1; read-out: IC50 SceCet1): 3.2 µM
O=C(CCO[C@@H]1O[C@H](CO)[C@@H](O)[C@H](O)[C@H]1O)c1ccc(O)cc1 [Compound 2B, 3-O-(4-hydroxyphenylpropanone)-1-glucopyranoside]		182		44			62	150 µM	227		fold lower potency against MimiCE than against TbCet1 (MimiCE): 180 fold; IC50 (MimiCE; read-out: IC50 MimiCE, 7 nM MimiCE, 37°C): 120 µM; IC50 (TbCet1 [1]; [10]): 1.1 µM; fold lower potency against CthTTM than against TbCet1 (CthTTM [2]): 44 fold; IC50 (CthTTM [2]; read-out: IC50 CthTTM, 500 nM CthTTM, 37°C): 29 µM; IC50 (TbCet1 [3]; [11]): 0.66 µM; fold lower potency against SceCet1 than against TbCet1 (SceCet1): 62 fold; IC50 (SceCet1; read-out: IC50 SceCet1, 25 nM SceCet1, 30°C): 41 µM
O=C(/C=C/c1ccc(O)c(O)c1)O[C@H](Cc1ccc(O)c(O)c1)C(=O)O [Compound 3A, rosmarinic acid]			0.05 µM		0.12 µM						
O=C(O)/C=C/c1ccc(O)c(O)c1 [Compound 3B, caffeic acid]					29 µM	> 500 µM				75 µM	IC50 (MimiCE): > 500 µM; activity against MimiCE (in words) (MimiCE): inactive; IC50 (CthTTM [2]; [8]): 310 µM
O=C(O)C1OC(Oc2c(-c3ccc(O)c(O)c3)oc3cc(O)cc(O)c3c2=O)C(O)C(O)C1O (stereo not drawn) [Compound 4A, miquelianin]	19 µM	106	0.18 µM	133	0.18 µM	43 µM	239		161	29 µM	IC50 (CthTTM [2]): 24 µM
O=c1c(O)c(-c2cc(O)c(O)c(O)c2)oc2cc(O)cc(O)c12 [Compound 4B, myricetin]			0.23 µM		0.36 µM						
Oc1cc(O)c2c(c1)O[C@H](c1ccc(O)c(O)c1)[C@H](O)C2 [Compound 4C, epicatechin]	10 µM	40	0.26 µM	104	0.25 µM	8.7 µM	35		136	34 µM	IC50 (CthTTM [2]; [8]): 26 µM
O=C(CCO)c1ccc(O)cc1 [Compound 5, 3-hydroxy-1-(4-hydroxyphenyl)propan-1-one]	84 µM	131	0.63 µM	14	0.64 µM	> 500 µM			250	160 µM	IC50 (CthTTM [2]; [8]): 9.2 µM; activity against SceCet1 (in words) (SceCet1): no effect
O=C(/C=C/c1ccc(O)c(O)c1)O[C@@H]1[C@H](OC(=O)/C=C/c2ccc(O)c(O)c2)C[C@]2(OC(=O)/C=C/c3ccc(O)c(O)c3)C[C@H]1OC2=O [Compound 6A, 1,4,5-tricaffeoylquinide]		17		53	0.12 µM	2 µM	17	2.6 µM	22		IC50 (MimiCE): 2 µM; IC50 (CthTTM [2]): 6.4 µM
O=C(C=Cc1ccccc1)OC1C=C(C(=O)O)CC(OC(=O)C=Cc2ccccc2)C1OC(=O)C=Cc1ccccc1 (stereo not drawn) [Compound 6B, 3,4,5-tricinnamoylshikimic acid]	19 µM	13						10 µM	7		fold lower potency against CthTTM than against TbCet1 (CthTTM [5]): 100 fold; IC50 (CthTTM [5]; 500 nM CthTTM, 37°C): 150 µM; IC50/IC50 TbCet1, CthTTM (CthTTM [5]; ratio in parentheses): 100; IC50 (TbCet1 [3]; [11]): 1.5 µM; activity against SceCet1 (in words) (SceCet1): inactive; IC50 (SceCet1; 25 nM SceCet1, 30°C, read-out: IC50 SceCet1): > 500 µM
CC(=O)O[C@@]12C[C@@H](OC(=O)/C=C/c3ccc(O)c(O)c3)[C@@H](OC(=O)/C=C/c3ccc(O)c(O)c3)[C@@H](C1)OC2=O [Compound 6C, 1-acetyl,4,5-dicaffeoylquinide]		4		13	3.6 µM	14 µM	4	21 µM	6		IC50 (MimiCE): 15 µM; IC50 (CthTTM [2]): 46 µM; fold lowered potency against TbCet1 versus compound 6A (TbCet1 [3]; acetate for the R1 caffeic acid): 30 fold
O=P(O)(O)OP(=O)(O)OP(=O)(O)O [Tripolyphosphate]											Ki (TbCet1 [6]): 1.4 µM
pentagalloylgalloylglucose [tannic acid]											IC50 (TbCet1 [1]; read-out: IC50 TbCet1, small-scale test library screens performed here and previously [37]): 0.06 µM
